The values that follow are results of earlier work, collected in patent US8945526B2, “Amphiphilic substance, and drug delivery system and molecular imaging system using the same” (Shimadzu Corporation, priority 2006, dated 2015).

For the series the following is noted: ICG singly administered.

Take `CC1(C)C(/C=C/C=C/C=C/C=C2\N(CCCCS(=O)(=O)O)c3ccc4ccccc4c3C2(C)C)=[N+](CCCCS(=O)(=O)[O-])c2ccc3ccccc3c21` [ICG, indocyanine green]: the “removal from the body” value was “removed from a body in one hour”.
